Laboratory results: the CheMixHub viscosity set
“And” between values parts separate entries of the source, which are not always exact repeats. Equal entries are not always repeated. ± gives the uncertainty stated by the source. One block for each compound: values may come before it.

viscosity (293.15 K, 101 kPa): 72.2 ± 15 mPa·s | viscosity (298.15 K, 101 kPa): 62.71 ± 13 mPa·s | viscosity (303.15 K, 101 kPa): 50.21 ± 10 mPa·s | viscosity (308.15 K, 101 kPa): 42.89 ± 8.7 mPa·s | viscosity (313.15 K, 101 kPa): 35.27 ± 7.1 mPa·s
Compound: C1CC[NH2+]C1.CCCCCCCC(=O)[O-]

Compound: CC(=O)O.CC(=O)[O-].CC[NH+](CC)CCO
viscosity (293.15 K, 101 kPa): 110.4 ± 3.1 mPa·s | viscosity (298.15 K, 101 kPa): 80.19 ± 2.1 mPa·s | viscosity (303.15 K, 101 kPa): 59.63 ± 1.6 mPa·s | viscosity (308.15 K, 101 kPa): 45.32 ± 1.2 mPa·s | viscosity (313.15 K, 101 kPa): 35.12 ± 0.92 mPa·s | viscosity (318.15 K, 101 kPa): 27.71 ± 0.73 mPa·s | viscosity (323.15 K, 101 kPa): 22.22 ± 0.58 mPa·s

Compound: CC(O)CC(C)(C)O (stereo unspecified)
viscosity (308.15 K, 101 kPa): 20.29 ± 2 mPa·s and 20.37 ± 2 mPa·s | viscosity (318.15 K, 101 kPa): 17.79 ± 1.8 mPa·s and 17.73 ± 1.8 mPa·s

viscosity (293.15 K, 100 kPa): 4.036 ± 0.012 mPa·s | viscosity (293.15 K, 101.33 kPa): 3.647 ± 0.032 mPa·s | viscosity (303 K, 101.33 kPa): 2.195 ± 0.23 mPa·s | viscosity (303.15 K, 101.3 kPa): 3.177 ± 0.036 mPa·s | viscosity (308.15 K, 101 kPa): 2 ± 0.6 mPa·s and 2.179 ± 0.034 mPa·s | viscosity (308.15 K, 101.3 kPa): 2.582 ± 0.016 mPa·s | viscosity (318.15 K, 101 kPa): 1.58 ± 0.6 mPa·s and 1.566 ± 0.025 mPa·s | viscosity (318.15 K, 101.33 kPa): 1.62 mPa·s | viscosity (323.15 K, 100 kPa): 1.626 ± 0.0049 mPa·s | viscosity (323.15 K, 101 kPa): 1.41 ± 0.6 mPa·s
Compound: CCC(C)O (stereo unspecified)
viscosity (298.15 K, 101.33 kPa): 2.925 ± 0.035 mPa·s and 2.857 ± 0.025 mPa·s | viscosity (303.15 K, 101 kPa): 2.742 ± 0.022 mPa·s and 2.27 ± 0.6 mPa·s and 2.741 ± 0.032 mPa·s | viscosity (303.15 K, 101.33 kPa): 2.417 ± 0.029 mPa·s and 2.741 ± 0.032 mPa·s | viscosity (308.15 K, 101.33 kPa): 2.034 ± 0.2 mPa·s and 2.011 ± 0.024 mPa·s

Compound: CCCCOCCOCCO
viscosity (298.15 K, 100 kPa): 5.11 ± 0.15 mPa·s | viscosity (298.15 K, 101 kPa): 4.877 ± 0.065 mPa·s | viscosity (298.15 K, 101.33 kPa): 5.232 ± 0.057 mPa·s and 5.232 ± 0.12 mPa·s | viscosity (303.15 K, 100 kPa): 4.345 ± 0.15 mPa·s | viscosity (308.15 K, 100 kPa): 3.872 ± 0.15 mPa·s | viscosity (308.15 K, 101 kPa): 3.582 ± 0.048 mPa·s | viscosity (318.15 K, 101 kPa): 2.943 ± 0.038 mPa·s

viscosity (293.15 K, 101 kPa): 133.5 ± 4.5 mPa·s and 127.6 ± 8.5 mPa·s | viscosity (293.15 K, 101.33 kPa): 125.3 ± 19 mPa·s | viscosity (295.2 K, 101 kPa): 122.9 ± 19 mPa·s | viscosity (303.15 K, 101.33 kPa): 81.85 ± 3.4 mPa·s and 87.7 ± 13 mPa·s | viscosity (308.15 K, 101.33 kPa): 63.57 ± 2.6 mPa·s and 72.5 ± 11 mPa·s | viscosity (313.15 K, 101.33 kPa): 57.7 ± 8.7 mPa·s | viscosity (318.15 K, 101 kPa): 42.6 ± 0.9 mPa·s and 38.72 ± 2.3 mPa·s | viscosity (323.15 K, 101 kPa): 34.52 ± 0.56 mPa·s | viscosity (323.15 K, 101.33 kPa): 34.8 ± 1.4 mPa·s
Compound: CCCCn1cc[n+](C)c1.F[B-](F)(F)F
viscosity (308.15 K, 101 kPa): 65 ± 1.3 mPa·s and 61.5 ± 7.9 mPa·s and 58.36 ± 3.5 mPa·s | viscosity (313.15 K, 101 kPa): 52.2 ± 1.1 mPa·s and 50.52 ± 0.74 mPa·s and 46.22 ± 2.8 mPa·s

Compound: CCC[n+]1ccn(C)c1C.O=S(=O)([N-]S(=O)(=O)C(F)(F)F)C(F)(F)F
viscosity (298.15 K, 101 kPa): 85.6 ± 2.5 mPa·s

Compound: Cc1ccc(O)cc1
viscosity (293.15 K, 101 kPa): 18.95 ± 0.32 mPa·s | viscosity (298.15 K, 101 kPa): 13.93 ± 0.99 mPa·s and 14.74 ± 0.24 mPa·s | viscosity (313.15 K, 101.3 kPa): 6.661 ± 0.081 mPa·s | viscosity (318.15 K, 101 kPa): 5.795 ± 0.48 mPa·s and 5.292 ± 0.039 mPa·s (2×) | viscosity (323.15 K, 101.3 kPa): 4.48 ± 0.056 mPa·s | viscosity (323.15 K, 101.33 kPa): 4.62 ± 0.046 mPa·s

Compound: Cc1cccc(C)c1
viscosity (293.15 K, 100 kPa): 0.614 ± 0.03 mPa·s | viscosity (293.15 K, 101 kPa): 0.5522 ± 0.0085 mPa·s and 0.627 ± 0.013 mPa·s | viscosity (298.15 K, 101 kPa): 0.5821 ± 0.0073 mPa·s and 0.5848 ± 0.016 mPa·s | viscosity (298.15 K, 101.3 kPa): 0.586 ± 0.016 mPa·s and 0.58 ± 0.016 mPa·s | viscosity (303 K, 101 kPa): 0.5456 ± 0.0046 mPa·s and 0.5455 ± 0.0046 mPa·s | viscosity (303.15 K, 101.3 kPa): 0.543 ± 0.015 mPa·s and 0.548 ± 0.015 mPa·s and 0.5471 ± 0.015 mPa·s | viscosity (303.15 K, 101.33 kPa): 0.555 ± 0.006 mPa·s | viscosity (308.15 K, 100 kPa): 0.4712 ± 0.057 mPa·s | viscosity (308.15 K, 101 kPa): 0.5329 ± 0.0055 mPa·s | viscosity (308.15 K, 101.3 kPa): 0.519 ± 0.015 mPa·s | viscosity (308.15 K, 101.33 kPa): 0.5218 ± 0.0067 mPa·s and 0.542 ± 0.004 mPa·s and 0.527 ± 0.005 mPa·s | viscosity (308.5 K, 101 kPa): 0.547 ± 0.015 mPa·s | viscosity (313 K, 101 kPa): 0.4931 ± 0.0042 mPa·s and 0.492 ± 0.0042 mPa·s | viscosity (313.15 K, 100 kPa): 0.492 ± 0.03 mPa·s | viscosity (313.15 K, 101 kPa): 0.4463 ± 0.0073 mPa·s and 0.522 ± 0.014 mPa·s and 0.4923 ± 0.0091 mPa·s | viscosity (313.15 K, 101.3 kPa): 0.49 ± 0.014 mPa·s | viscosity (323 K, 101 kPa): 0.4487 ± 0.0039 mPa·s | viscosity (323.15 K, 101 kPa): 0.3949 ± 0.0068 mPa·s and 0.4488 ± 0.013 mPa·s | viscosity (323.15 K, 101.3 kPa): 0.439 ± 0.013 mPa·s

Compound: Cc1ccccc1N
viscosity (298.15 K, 100 kPa): 3.718 ± 0.079 mPa·s | viscosity (298.15 K, 101 kPa): 3.645 ± 0.097 mPa·s | viscosity (303.15 K, 100 kPa): 3.258 ± 0.065 mPa·s and 3.258 ± 0.07 mPa·s and 3.26 ± 0.1 mPa·s | viscosity (303.15 K, 101 kPa): 3.1 ± 0.08 mPa·s | viscosity (308.15 K, 100 kPa): 2.824 ± 0.064 mPa·s and 2.824 ± 0.061 mPa·s and 2.82 ± 0.09 mPa·s | viscosity (313.15 K, 100 kPa): 2.487 ± 0.063 mPa·s and 2.487 ± 0.053 mPa·s and 2.49 ± 0.08 mPa·s | viscosity (318.15 K, 100 kPa): 2.153 ± 0.063 mPa·s and 2.153 ± 0.047 mPa·s and 2.15 ± 0.07 mPa·s

Compound: ClC(Cl)(Cl)c1ccccc1
viscosity (298.15 K, 101.33 kPa): 2.18 ± 0.019 mPa·s

Compound: NCCCO
viscosity (303.15 K, 101 kPa): 24.12 ± 0.43 mPa·s | viscosity (308.15 K, 101 kPa): 18.98 ± 0.34 mPa·s | viscosity (318.15 K, 101 kPa): 12.35 ± 0.51 mPa·s

Compound: Nc1ccccc1Cl
viscosity (298.15 K, 100 kPa): 4.209 ± 0.089 mPa·s | viscosity (298.15 K, 101 kPa): 2.973 ± 0.029 mPa·s and 2.974 ± 0.027 mPa·s | viscosity (303.15 K, 100 kPa): 3.825 ± 0.081 mPa·s | viscosity (308.15 K, 100 kPa): 3.413 ± 0.072 mPa·s | viscosity (313.15 K, 100 kPa): 3.06 ± 0.065 mPa·s | viscosity (318.15 K, 100 kPa): 2.762 ± 0.059 mPa·s

Compound: O=S(=O)(Cl)Cl
viscosity (298.15 K, 101 kPa): 0.685 ± 0.018 mPa·s

Compound: O=S1(=O)CCCC1
viscosity (298.15 K, 101.3 kPa): 10.28 ± 0.13 mPa·s | viscosity (308.15 K, 100 kPa): 8.795 ± 0.17 mPa·s | viscosity (308.15 K, 101.3 kPa): 8.258 ± 0.11 mPa·s | viscosity (318.15 K, 101 kPa): 7.18 ± 0.72 mPa·s and 7.17 ± 0.74 mPa·s and 6.912 ± 0.037 mPa·s | viscosity (318.15 K, 101.3 kPa): 6.256 ± 0.085 mPa·s | viscosity (323.15 K, 101.33 kPa): 6.346 ± 0.032 mPa·s

viscosity (298.15 K, 101 kPa): 13.11 ± 0.29 mPa·s | viscosity (308.15 K, 101 kPa): 8.963 ± 0.2 mPa·s | viscosity (318.15 K, 101 kPa): 6.508 ± 0.15 mPa·s and 6.58 ± 0.15 mPa·s
Compound: OC1COCOC1

Compound: c1ccc2sccc2c1
viscosity (308.15 K, 101 kPa): 2.94 ± 0.4 mPa·s | viscosity (318.15 K, 101 kPa): 2.06 ± 0.13 mPa·s
